# System: SARS-CoV-2
# Experiment: cell-based anti-viral assay using Vero E6 cell line, viral RNA by qRT-PCR
# Conditions: Vero E6 cells, 48 h; for ΔCt (1 μM) / inhibition at 1 µM: 1 μM compound; for ΔCt (1 μM) / ΔCt (5 μM): increase in Ct vs no-drug control; for ΔCt (5 μM) / inhibition at 5 µM: 5 μM compound; for inhibition at 1 µM / inhibition at 5 µM: Severe acute respiratory syndrome coronavirus 2, Vero C1008, calculated from ΔCt; for inhibition at 1 µM: read-out: % SARS-CoV-2 Inactivation (1 μM); for inhibition at 5 µM: read-out: % SARS-CoV-2 Inactivation (5 μM)
Compound,ΔCt (1 μM),ΔCt (5 μM),inhibition at 1 µM [%],inhibition at 5 µM [%]
"FC(F)(F)c1cc(Nc2nc3c(C(F)(F)F)cc(C(F)(F)F)cc3[nH]2)cc(C(F)(F)F)c1 [Example 1, N-(3,5-bis(trifluoromethyl)phenyl)-4,6-bis(trifluoromethyl)-1H-benzo[d]imidazol-2-amine]",5.7,12,> 95,> 99.9
"FC(F)(F)c1cc(C(F)(F)F)c2nc(Nc3ccc(Cl)cc3)[nH]c2c1 [Example 2, N-(4-chlorophenyl)-4,6-bis(trifluoromethyl)-1H-benzo[d]imidazol-2-amine]",4.4,6,> 90,> 95
"FC(F)(F)c1cc(C(F)(F)F)c2nc(Nc3ccccc3)[nH]c2c1 [Example 3, N-phenyl-4,6-bis(trifluoromethyl)-1H-benzo[d]imidazol-2-amine]",1.8,3.3,< 3,90
"COc1ccc(Nc2nc3c(C(F)(F)F)cc(C(F)(F)F)cc3[nH]2)cc1Br [Example 4, N-(3-bromo-4-methoxyphenyl)-4,6-bis(trifluoromethyl)-1H-benzo[d]imidazol-2-amine]",2.7,6,< 3,> 95
"FC(F)(F)c1cc(C(F)(F)F)c2nc(Nc3cccnc3)[nH]c2c1 [Example 5, N-(pyridin-3-yl)-4,6-bis(trifluoromethyl)-1H-benzo[d]imidazol-2-amine]",1,1.2,< 3,< 3
"FC(F)(F)c1cc(C(F)(F)F)c2nc(NCc3ccccc3)[nH]c2c1 [Example 6, N-benzyl-4,6-bis(trifluoromethyl)-1H-benzo[d]imidazol-2-amine]",2,1.6,< 3,< 3
"FC(F)(F)c1cc(C(F)(F)F)c2nc(NC3CCOCC3)[nH]c2c1 [Example 7, N-(tetrahydro-2H-pyran-4-yl)-4,6-bis(trifluoromethyl)-1H-benzo[d]imidazol-2-amine]",0.9,−0.32,< 3,< 3
"Fc1cc2nc(Nc3ccccc3)[nH]c2cc1F [Example 8, 5,6-difluoro-N-phenyl-1H-benzo[d]imidazol-2-amine]",3.1,4.2,90,> 90
"COc1ccc(Nc2nc3cc(F)c(F)cc3[nH]2)cc1Br [Example 9, N-(3-bromo-4-methoxyphenyl)-5,6-difluoro-1H-benzo[d]imidazol-2-amine]",−1.1,1,< 3,< 3
"Fc1cc2nc(Nc3cccc(C(F)(F)F)c3)[nH]c2cc1F [Example 10, 5,6-difluoro-N-(3-(trifluoromethyl)phenyl)-1H-benzo[d]imidazol-2-amine]",2.4,2.4,< 3,< 3
"Fc1cc2nc(Nc3cc(C(F)(F)F)cc(C(F)(F)F)c3)[nH]c2cc1F [Example 11, N-(3,5-bis(trifluoromethyl)phenyl)-5,6-difluoro-1H-benzo[d]imidazol-2-amine]",5.8,10.3,> 95,99.9
"Fc1cc2nc(Nc3ccc(C(F)(F)F)cc3)[nH]c2cc1F [Example 12, 5,6-difluoro-N-(4-(trifluoromethyl)phenyl)-1H-benzo[d]imidazol-2-amine]",2.4,3.5,< 3,90
"Fc1cc2nc(NCc3ccccc3)[nH]c2cc1F [Example 13, N-benzyl-5,6-difluoro-1H-benzo[d]imidazol-2-amine]",1.3,1,< 3,< 3
"FC(F)(F)c1cccc(Nc2nc3c(C(F)(F)F)cc(C(F)(F)F)cc3[nH]2)c1 [Example 14, 4,6-bis(trifluoromethyl)-N-(3-(trifluoromethyl)phenyl)-1H-benzo[d]imidazol-2-amine]",7.4,16,99,100
"CC(C)Nc1nc2c(C(F)(F)F)cc(C(F)(F)F)cc2[nH]1 [Example 15, N-isopropyl-4,6-bis(trifluoromethyl)-1H-benzo[d]imidazol-2-amine]",3.1,4.2,90,> 90
"FC(F)(F)c1cc(C(F)(F)F)c2nc(N3CCCCC3)[nH]c2c1 [Example 16, 2-(piperidin-1-yl)-4,6-bis(trifluoromethyl)-1H-benzo[d]imidazole]",0.8,1,< 3,< 3
"FC(F)(F)c1cc(C(F)(F)F)c2nc(Nc3ccc4ccccc4c3)[nH]c2c1 [Example 17, N-(naphthalen-2-yl)-5,7-bis(trifluoromethyl)-1H-benzo[d]imidazol-2-amine]",3,1.5,90,< 3
"CC(C)c1ccccc1Nc1nc2c(C(F)(F)F)cc(C(F)(F)F)cc2[nH]1 [Example 18, N-(2-isopropylphenyl)-4,6-bis(trifluoromethyl)-1H-benzo[d]imidazol-2-amine]",1.4,1.4,< 3,< 3
"C[C@@H](Nc1nc2c(C(F)(F)F)cc(C(F)(F)F)cc2[nH]1)c1cccc2ccccc12 [Example 19, (R)—N-(1-(naphthalen-1-yl)ethyl)-4,6-bis(trifluoromethyl)-1H-benzo[d]imidazol-2-amine]",1.9,1.9,< 3,< 3
"O=S1(=O)CCC(Nc2nc3c(C(F)(F)F)cc(C(F)(F)F)cc3[nH]2)C1 (centres unmarked) [Example 20, 3-((4,6-bis(trifluoromethyl)-1H-benzo[d]imidazol-2-yl)amino)tetrahydrothiophene 1,1-dioxide]",1.7,3.7,< 3,> 90
"CC1(Nc2nc3c(C(F)(F)F)cc(C(F)(F)F)cc3[nH]2)CCC1 [Example 21, N-(1-methylcyclobutyl)-4,6-bis(trifluoromethyl)-1H-benzo[d]imidazol-2-amine]",3.6,9.3,> 90,> 99
"FC(F)(F)Oc1cccc(Nc2nc3c(C(F)(F)F)cc(C(F)(F)F)cc3[nH]2)c1 [Example 22, N-(3-(trifluoromethoxy)phenyl)-4,6-bis(trifluoromethyl)-1H-benzo[d]imidazol-2-amine]",3.3,7.4,90,99
"Fc1ccccc1Nc1nc2c(C(F)(F)F)cc(C(F)(F)F)cc2[nH]1 [Example 23, N-(2-fluorophenyl)-4,6-bis(trifluoromethyl)-1H-benzo[d]imidazol-2-amine]",−0.3,5.2,< 3,> 95

# Source: patent publication US20260042743A1, “SUBSTITUTED BENZIMIDAZOLES FOR TREATING VIRAL DISEASES” (COUNCIL OF SCIENTIFIC AND INDUSTRIAL RESEARCH, priority 2022, published 2026)
